The target in the assay is T1, 5HT UPTAKE (Rattus norvegicus, UniProt P31652).
T1 construct: Crude synaptosomal preparations were isolated after differential centrifugation; from tissue; host or cells: rat cerebral cortex, crude synaptosomes
Briefly: Inhibition of synaptosomal uptake of 3H-serotonin (3H-5HT) in vitro, rat cerebral cortex synaptosomes. Conditions: concentration needed to inhibit the uptake of 3H-5HT by 50%; rat cortical synaptosomes, 37°C, 5 min, 50 nM 3H-5HT. It is filed as biochemical, Sprague-Dawley rats. The method, then: This general procedure is set forth in Wong et al., Drug Development Research 6:397-403 (1985).
Male Sprague-Dawley rats (110-150 g) from Harlan Industries (Cumberland, IN) were fed Purina Chow ad libitum for at least 3 days before being used in the studies. Rats were killed by decaptiation. Whole brains were removed and dissected. Cerebral cortex was homogenized in 9 volumes of a medium containing 0.32 M sucrose and 10 mM glucose. Crude synaptosomal preparations were isolated after differential centrifugation at 1,000 g for 10 min. and 17,000 g for 28 min. The final pellets were suspended in the same medium and kept in ice until use within the same day.
Synaptosomal uptake of ³H-serotonin (³H-5-hydroxytryptamine, ³H-5HT) was determined as follows: Cortical synaptosomes (equivalent to 1 mg of protein) were incubated at 37°C for 5 min in 1 ml of Krebs-bicarbonate medium containing also 10 mM glucose, […], 1 mM ascorbic acid, 0.17 mM EDTA and 50 nM ³H-5HT. The reaction mixture was immediately diluted with 2 ml of ice-chilled Krebs-bicarbonate buffer and filtered under vacuum with a cell harvester (Brandel, Gaithersburg, MD). Filters were rinsed twice with approximately 5 ml of ice-chilled 0.9% saline and were transferred to a counting vial containing 10 ml of scintillation fluid (PCS, Amersham, Arlington Heights, IL). Radioactivity was measured by a liquid scintillation spectrophotometer. Accumulation of ³H-5HT at 4°C represented the background and was subtracted from all samples.
The results of the evaluation of various compounds of the present invention are set forth below in Table I. In Table I, the first column provides the Example Number of the compound evaluated; the next 7 columns identify the structure of the compound evaluated when taken with the formula set forth in the heading; the next-succeeding column identifies the salt form of the compound evaluated; and the final column provides the amount of the test compound expressed in nanomolar concentration needed to inhibit the uptake of ³H-5HT by 50%, and is indicated in Table I as IC₅₀. Numbers in parentheses, if any, represent percent inhibition at 1000 nM.

Molecules are shown by their SMILES. Where a name gives a salt, the structure may show the parent alone.

Usually IC50 stands for the midpoint of a concentration-inhibition curve.

T1 sequence (P31652 whole entry): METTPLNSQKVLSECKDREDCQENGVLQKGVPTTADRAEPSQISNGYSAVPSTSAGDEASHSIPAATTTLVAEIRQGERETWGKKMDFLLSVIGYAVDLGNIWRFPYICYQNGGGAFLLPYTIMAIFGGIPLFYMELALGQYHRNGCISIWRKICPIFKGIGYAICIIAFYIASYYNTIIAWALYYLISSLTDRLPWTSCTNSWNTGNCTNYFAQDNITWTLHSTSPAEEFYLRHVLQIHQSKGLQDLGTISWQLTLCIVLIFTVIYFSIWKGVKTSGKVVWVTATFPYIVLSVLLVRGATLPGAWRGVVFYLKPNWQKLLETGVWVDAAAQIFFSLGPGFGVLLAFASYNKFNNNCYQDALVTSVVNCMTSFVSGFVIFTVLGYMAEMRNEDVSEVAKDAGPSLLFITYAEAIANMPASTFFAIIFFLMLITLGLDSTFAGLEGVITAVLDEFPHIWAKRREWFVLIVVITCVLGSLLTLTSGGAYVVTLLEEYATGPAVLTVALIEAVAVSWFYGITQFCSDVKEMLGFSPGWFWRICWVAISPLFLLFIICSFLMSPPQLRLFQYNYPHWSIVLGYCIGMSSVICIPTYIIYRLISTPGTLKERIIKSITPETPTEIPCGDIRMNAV

For the compound `Clc1cc2c(cc1Cl)CC(N1CCNCC1)CC2` (centres unmarked) [Example 30, 2-Piperazinyl-6,7-dichloro-1,2,3,4-tetrahydronaphthalene dihydrochloride], the IC50 worked out at 115 nM.

`Cc1ccc(Br)c2c1CC(N1CCN(C)CC1)CC2` (centres unmarked) [Example 17, 2-(N-methylpiperazinyl)-5-bromo-8-methyl-1,2,3,4-tetrahydronaphthalene dihydrochloride] returned an IC50 of 17 nM.

Consider `Clc1ccc2c(c1)CCC(N1CCNCC1)C2` (centres unmarked) [Example 25, 2-Piperazinyl-6-chloro-1,2,3,4-tetrahydronaphthalene dihydrochloride], for which half-maximal inhibition (IC50) was put at 100 nM.

`COc1ccc2c(c1)CCC(N1CCNCC1)C2` (centres unmarked) [Example 29, 2-Piperazinyl-6-methoxy-1,2,3,4-tetrahydronaphthalene dihydrochloride]: inhibition was half-maximal at 750 nM (IC50).

As to `COc1ccc(Br)c2c1CC(N1CCN(C)CC1)CC2` (centres unmarked) [Example 15, 2-(N-Methylpiperazinyl)-5-bromo-8-methoxy-1,2,3,4-tetrahydronaphthalene dihydrochloride], it took 12 nM to reach half-maximal inhibition (IC50).

The compound `CC1c2ccccc2CCC1N1CCN(C)CC1` (centres unmarked) [Example 35, 1-Methyl-2-(N-methylpiperazinyl-1,2,3,4-tetrahydronaphthalenedihydrochloride] registered an IC50 of 490 nM.

The compound `COc1ccc(C=O)c2c1CC(N1CCN(C)CC1)CC2` (centres unmarked) [Example 23, 2-(N-methylpiperazinyl)-5-formyl-8-methoxy-1,2,3,4-tetrahydronaphthalene dihydrochloride hydrate] came in with an IC50 of 10 nM.

`CSc1cccc2c1CC(N1CCN(C)CC1)CC2` (centres unmarked) [Example 18, 2-(N-methylpiperazinyl)-8-methylthio-1,2,3,4-tetrahydronaphthalene dimaleate] gave an IC50 of 40 nM.

Regarding `COc1cccc2c1CC(N1CCNCC1)CC2` (centres unmarked) [Example 2, 2-Piperazinyl-8-methoxy-1,2,3,4-tetrahydronaphthalene dihydrochloride], the midpoint of inhibition, the IC50, lay at 90 nM.

Consider `Cc1ccc(C)c2c1CCC(N1CCN(C)CC1)C2` (centres unmarked) [Example 8, 2-(N-Methylpiperazinyl)-5,8-dimethyl-1,2,3,4-tetrahydronaphthalene dimaleate], for which the IC50 was determined as 140 nM.

As for `CN1CCN(C2CCc3cc(Br)ccc3C2)CC1` (centres unmarked) [Example 31, 2-(N-Methylpiperazinyl)-6-bromo-1,2,3,4-tetrahydronaphthalene dihydrochloride], half-maximal inhibition (IC50) required 520 nM.

Take `COc1cccc2c1CC(N1CCN(C)CC1)CC2` (centres unmarked) [Example 1, 2-(Methylpiperazinyl)-8-methoxy-1,2,3,4-tetrahydronaphthalene dihydrochloride]: the IC50 stood at 57 nM.

`CN1CCN(C2CCc3cccc(Br)c3C2)CC1` (centres unmarked) [Example 9, 2-(N-Methylpiperazinyl)-8-bromo-1,2,3,4-tetrahydronaphthalene dimaleate] showed an IC50 of 90 nM.

Turning to `COc1ccc(Br)c2c1C(C)C(N1CCNCC1)CC2` (single isomer, unassigned) [Example 19, 1-Methyl-2-piperazinyl-5-bromo-8-methoxy-1,2,3,4-tetrahydronaphthalene dihydrochloride], the IC50 came to 70 nM.

Compound `C[C@@H]1c2ccc(Cl)cc2CC[C@@H]1N1CCNCC1` (single isomer, unassigned; (+)) [Example 33a, (+)cis-1-Methyl-2-piperazinyl-6-chloro-1,2,3,4-tetrahydronaphthalene dihydrochloride dihydrate] displayed an IC50 of 84 nM.

Take `C[C@@H]1c2ccc(Cl)cc2CC[C@@H]1N1CCNCC1` (single isomer, unassigned; (-)) [Example 33b, (-)cis-1-Methyl-2-piperazinyl-6-chloro-1,2,3,4-tetrahydronaphthalene dihydrochloride dihydrate]: the IC50 stood at 8.2 nM.

In turn, `CN1CCN(C2CCc3cccc(O)c3C2)CC1` (centres unmarked) [Example 14, 2-(N-Methylpiperazinyl)-8-hydroxy-1,2,3,4-tetrahydronaphthalene dihydrobromide] registered an IC50 of 50 nM.

Take `CN1CCN(C2CCc3cccc(Cl)c3C2)CC1` (centres unmarked) [Example 4, 2-(N-methylpiperazinyl)-8-chloro-1,2,3,4-tetrahydronaphthalene dimaleate]: the midpoint of inhibition, the IC50, lay at 35 nM.

`Clc1ccc2c(c1)CCC(N1CCCNCC1)C2` (centres unmarked) [Example 36, 2-Homopiperazinyl-6-chloro-1,2,3,4-tetrahydronaphthalene dihydrochloride] displayed an IC50 of 240 nM.

Compound `Cc1cccc2c1CC(N1CCN(C)CC1)CC2` (centres unmarked) [Example 7, 2-(N-Methylpiperazinyl)-8-methyl-1,2,3,4-tetrahydronaphthalene dihydrochloride] had a half-inhibitory concentration (IC50) of 87 nM.

For the compound `Fc1ccc2c(c1)CCC(N1CCNCC1)C2` (centres unmarked) [Example 27, 2-Piperazinyl-6-fluoro-1,2,3,4-tetrahydronaphthalene dihydrochloride], the IC50 is 340 nM.

As to `CC1c2c(Cl)cccc2CCC1N1CCN(C)CC1` (centres unmarked) [Example 11, 1-Methyl-2-(N-methylpiperazinyl)-8-chloro-1,2,3,4-tetrahydronaphthalene dimaleate], the IC50 was found to be 650 nM.

For the compound `CN1CCN(C2CCc3cccc(F)c3C2)CC1` (centres unmarked) [Example 6, 2-(N-methylpiperazinyl)-8-fluoro-1,2,3,4-tetrahydronaphthalene dimaleate], the IC50 is 180 nM.

Consider `Brc1ccc2c(c1)CCC(N1CCNCC1)C2` (centres unmarked) [Example 26, 2-Piperazinyl-6-bromo-1,2,3,4-tetrahydronaphthalene dihydrochloride], for which half-maximal inhibition (IC50) was put at 350 nM.

`COc1ccc(C#N)c2c1CC(N1CCN(C)CC1)CC2` (centres unmarked) [Example 24, 2-(N-methylpiperazinyl)-5-cyano-8-methoxy-1,2,3,4-tetrahydronaphthalene dihydrochloride] returned an IC50 of 12 nM.

Regarding `CC1c2ccccc2CCC1N1CCNCC1` (centres unmarked) [Example 34, 1-Methyl-2-piperazinyl-1,2,3,4-tetrahydronaphthalene dihydrochloride], the midpoint of inhibition, the IC50, lay at 59 nM.

In turn, `COc1ccc(OC)c2c1CCC(N1CCN(C)CC1)C2` (centres unmarked) [Example 10, 2-(N-methylpiperazinyl)-5,8-dimethoxy-1,2,3,4-tetrahydronaphthalene dihydrochloride] returned an IC50 of 100 nM.

In the case of `COc1ccc(C(F)F)c2c1CC(N1CCN(C)CC1)CC2` (centres unmarked) [Example 38, 2-(N-Methylpiperazinyl)-5-difluoromethyl-8-methoxy-1,2,3,4-tetrahydronaphthalene dimaleate], the IC50 amounted to 23 nM.

Take `Cc1ccc2c(c1)CCC(N1CCNCC1)C2` (centres unmarked) [Example 28, 2-Piperazinyl-6-methyl-1,2,3,4-tetrahydronaphthalene dihydrochloride]: the IC50 is 210 nM.

Regarding `COc1ccc(I)c2c1CC(N1CCN(C)CC1)CC2` (centres unmarked) [Example 22, 2-(N-methylpiperazinyl)-5-iodo-8-methoxy-1,2,3,4-tetrahydronaphthalene dihydrochloride], half-maximal inhibition (IC50) required 23 nM.

As to `CN1CCN(C2CCc3cc(Cl)ccc3C2)CC1` (centres unmarked) [Example 32, 2-(N-Methylpiperazinyl)-6-chloro-1,2,3,4-tetrahydronaphthalene dihydrochloride], the IC50 was 450 nM.

Compound `COc1ccc(Cl)c2c1CC(N1CCN(C)CC1)CC2` (centres unmarked) [Example 21, 2-(N-methylpiperazinyl)-5-chloro-8-methoxy-1,2,3,4-tetrahydronaphthalene dihydrochloride] gave an IC50 of 16 nM.
